Entries after “also recorded” stand apart in the source; their conditions may differ.
System: Hartley guinea pigs (females)
Experiment: Safety (sensitization) maximization test
Format: in vivo, guinea pig
Conditions: for MR: Mean score (average of reaction scores): erythema score 0-3
Method: Safety (sensitization) was evaluated using a maximization test.
An area of the skin over the scapula measuring 4×6 cm^2 was shaved in Hartley guinea pigs (females) having body weights of 350 to 400 g, and two rows of three intradermal injections per row were made in the order indicated below.
1) 0.05 mL aliquots of Freund's complete adjuvant (hereinafter, to abbreviated as FCA solution) were intradermally injected at two locations on the left and right sides.
2) 0.05 mL aliquots of an olive oil solution containing 10% of a sclareol derivative obtained in the aforementioned producing examples or sclareol were intradermally injected at two locations on the left and right sides.
3) 0.05 mL aliquots of an emulsified solution obtained by adding an equal volume of sterile water to an FCA solution containing 20% sclareol or sclareol derivative obtained in the aforementioned production examples were intradermally injected at two locations on the left and right sides.
The same sites on the animals were shaved one week after these procedures, and vaseline containing 10% sodium lauryl sulfate was rubbed onto the skin to induce mild inflammation. 24 hours after rubbing, 0.2 mL of olive oil solutions containing 10% sclareol derivative sample of the present invention or sclareol were applied to a piece of gauze, which was then affixed to cover the skin for 48 hours. The abdomens of the animals were shaved on the 21st day after intradermal injection, and olive oil solutions containing 5% and 10% of a sclareol derivative sample of the present invention, or an olive oil solution containing 5% of a sclareol sample were affixed to cover the skin for 24 hours.

[1] = challenge concentration 5% in olive oil, After 24 Hours
[2] = challenge concentration 5% in olive oil, After 48 Hours
[3] = challenge concentration 10% in olive oil, After 24 Hours
[4] = challenge concentration 10% in olive oil, After 48 Hours

CC[C@](C)(O)CCC1[C@@]2(C)CCCC(C)(C)C2CC[C@@]1(C)O (some centres unmarked) [Hydrogenated sclareol, hydrogenated sclareol]
PR: Sensitization rate (Number of positive animals/Number of animals used) [1]: 0, (0)
MR: Mean score (average of reaction scores) [1]: 0, (0)
PR: Sensitization rate (Number of positive animals/Number of animals used) [2]: 0, (0)
MR: Mean score (average of reaction scores) [2]: 0, (0)
PR: Sensitization rate (Number of positive animals/Number of animals used) [3]: 0, (0)
MR: Mean score (average of reaction scores) [3]: 0, (0)
PR: Sensitization rate (Number of positive animals/Number of animals used) [4]: 0, (0)
MR: Mean score (average of reaction scores) [4]: 0, (0)

C=C[C@@](C)(O)CCC1[C@@]2(C)CCCC(C)(C)C2CC[C@@]1(C)O (some centres unmarked) [Sclareol, sclareol, reference compound]
PR: Sensitization rate (Number of positive animals/Number of animals used) [1]: 4/10
MR: Mean score (average of reaction scores) [1]: 0.4
PR: Sensitization rate (Number of positive animals/Number of animals used) [2]: 4/10
MR: Mean score (average of reaction scores) [2]: 0.4
Sensitization (result in words) (maximization test, guinea pigs): has skin sensitizing properties; also recorded: sensitization being confirmed

monoacetylated sclareol
PR: Sensitization rate (Number of positive animals/Number of animals used) [1]: 0, (0)
MR: Mean score (average of reaction scores) [1]: 0, (0)
PR: Sensitization rate (Number of positive animals/Number of animals used) [2]: 0, (0)
MR: Mean score (average of reaction scores) [2]: 0, (0)
PR: Sensitization rate (Number of positive animals/Number of animals used) [3]: 0, (0)
MR: Mean score (average of reaction scores) [3]: 0, (0)
PR: Sensitization rate (Number of positive animals/Number of animals used) [4]: 0, (0)
MR: Mean score (average of reaction scores) [4]: 0, (0)

C=C[C@@](C)(CC[C@@H]1[C@@]2(C)CCCC(C)(C)[C@@H]2CC[C@@]1(C)OC(C)=O)OC(C)=O [Diacetylated sclareol, diacetylated sclareol]
PR: Sensitization rate (Number of positive animals/Number of animals used) [1]: 0, (0)
MR: Mean score (average of reaction scores) [1]: 0, (0)
PR: Sensitization rate (Number of positive animals/Number of animals used) [2]: 0, (0)
MR: Mean score (average of reaction scores) [2]: 0, (0)
PR: Sensitization rate (Number of positive animals/Number of animals used) [3]: 0, (0)
MR: Mean score (average of reaction scores) [3]: 0, (0)
PR: Sensitization rate (Number of positive animals/Number of animals used) [4]: 0, (0)
MR: Mean score (average of reaction scores) [4]: 0, (0)
